The values below come from patent US20230331679A1, “NAPHTHALENE MONOIMIDE COMPOUNDS AND METHODS THEREOF” (JAWAHARLAL NEHRU CENTRE FOR ADVANCED SCIENTIFIC RESEARCH, priority 2020, published 2023).

SMILES strings stand for the structures.

Data set [1] deals with APP/PS1 and WT mice. In words: Morris water maze (MWM) test. Type of data set: in vivo. How it is done:
The spatial and episodic memory formation under AD conditions were investigated through spatial learning and memory development tasks in MWM test. MWM test was performed in a water pool (radius: 70 cm) and experimental mice were trained four times in a day to find a hidden platform, which was removed in probe trial to assess the spatial memory. The latency time to reach the hidden platform during the training period was recorded to determine spatial learning (FIG. 16H). […] In the probe trial, AD vehicle cohort spent most of the time (~87% of total time) in other quadrants (without platform), while other cohorts (WT vehicle, WT TGR63 and AD TGR63) spent only ~67%, 58% and 66% of total time in without platform quadrants, respectively. The AD vehicle cohort spent minimum time (~13% of total time) in target quadrant (with platform) compared to WT vehicle cohort (~33% of total time). […] Remarkably, AD TGR63 cohort crossed the platform region ~4 times, which is greater than the AD vehicle cohort.

The nature of data set [2]: Octanol/water partition coefficient (LogP). Type of data set: physicochemical. The protocol:
Pharmacokinetics of TGR63 in wild-type (WT) mice was performed to assess its in vivo efficacy. The lethal dose 50 (LD50) of TGR63 was determined in WT mice through intraperitoneal (IP) injection following the Organisation for Economic Cooperation and Development (OECD) guidelines. […] FIG. 7A illustrates the calculation of lethal dose 50% (LD50) of TGR63 through intraperitoneal administration and is represented as table of experimental details and the final observation was done on 14th day. FIG. 7B illustrates the mortality (%) plotted against TGR63 concentration and calculation of LD50. Twenty-five WT mice were segregated in five different groups (G1-5, N= 5 per group) and administered with varying doses of TGR63 (1.7, 5.5, 17.5 56.0 and 179.0 mg/kg body weight, respectively) through IP injection and their survival was monitored for 14 days. The serum stability and blood-brain barrier (BBB) crossing ability of TGR63 were assessed through matrix-assisted laser desorption ionization (MALDI) mass spectrometry analysis of blood and brain samples of vehicle and TGR63 treated mice. TGR63 and vehicle were administrated in WT mice and sacrificed after 1 and 24 h to collect the blood for MALDI mass analysis FIG. 8 depicts the MALDI mass analysis of vehicle (FIG. 8A) and TGR63 treated mice blood serum after 1 h (FIG. 8B) and 24 h (FIG. 8C) of administration. The presence of TGR63 in blood was confirmed from the mass analysis even after 24 h. […] TGR63 was incubated in PBS (10 mM, pH= 7.4) and blood serum in WT mice for different time intervals (0.5, 1, 2 and 6 h) at 37° C. to evaluate the serum stability under in vitro conditions. […] FIG. 9 depicts the Serum stability of TGR63 under in vitro conditions. TGR63 was incubated in PBS (10 mM, pH= 7.4) and blood serum (WT mouse) for different time (0.5, 1, 2 and 6 h) at 37° C. […] The partition coefficient (P), a valuable physical property was calculated to predict the BBB permeability. […] FIG. 10 depicts the calculation of LogP. […] The calculated positive logP value predicts the possible BBB crossing ability for TGR63. […]

Data set [3] can be described thus: MALDI mass analysis of brain lysate (BBB crossing). Type of data set: in vivo. The settings on record: WT mice, brains collected after 1 h. How it is done:
(§1) Pharmacokinetics of TGR63 in wild-type (WT) mice was performed to assess its in vivo efficacy. The lethal dose 50 (LD50) of TGR63 was determined in WT mice through intraperitoneal (IP) injection following the Organisation for Economic Cooperation and Development (OECD) guidelines. […] FIG. 7A illustrates the calculation of lethal dose 50% (LD50) of TGR63 through intraperitoneal administration and is represented as table of experimental details and the final observation was done on 14th day. FIG. 7B illustrates the mortality (%) plotted against TGR63 concentration and calculation of LD50. Twenty-five WT mice were segregated in five different groups (G1-5, N= 5 per group) and administered with varying doses of TGR63 (1.7, 5.5, 17.5 56.0 and 179.0 mg/kg body weight, respectively) through IP injection and their survival was monitored for 14 days. The serum stability and blood-brain barrier (BBB) crossing ability of TGR63 were assessed through matrix-assisted laser desorption ionization (MALDI) mass spectrometry analysis of blood and brain samples of vehicle and TGR63 treated mice. […] The partition coefficient (P), a valuable physical property was calculated to predict the BBB permeability. […] The calculated positive logP value predicts the possible BBB crossing ability for TGR63. […]

The test system of another data set is WT mice. In words: LD50 by intraperitoneal injection (OECD guidelines). Type of data set: in vivo. The settings on record: IP injection, survival monitored 14 days. How it is done: as §1
In another data set the test system is APP/PS1 mice. In words: Open field (OF) test. Type of data set: in vivo. The settings on record: AD TGR63 cohort. The protocol:
(§2) In OF test, all the experimental mice were individually allowed to explore a novel platform (45 X 45 cm) and their locomotion activity was monitored for 5 min (Sony HDRCX405 camera) and analyzed using the smart 3 software (Panlab; FIG. 16A). […] The anxiety behaviors of TGR63 treated mice were assessed by the time spent and the entries in the center zone (20 X 20 cm) of OF arena. […] Next, the effect of TGR63 on memory processing, viz., acquisition, consolidation and retrieval were evaluated through NOI test, which has been widely used as a tool to study the neurobiology of memory using the natural tendency of rodents to explore novel objects more than the familiar objects. All the experimental mice were familiarized with two identical objects (familiar objects) in a known habituated arena and allowed to explore a novel and familiar object after 24 and 48 h of familiarization (FIG. 16E). The exploration time with each object was measured using a stopwatch, and the discrimination index (DI) was determined using the formula, (time exploring the novel object - time exploring the familiar) / (time exploring novel + familiar) * 100. […] Similarly, the calculated DI after 48 h was lowest (-7) for AD vehicle cohort compared to both vehicle and TGR63 treated WT cohorts (+43 and +45, respectively) (FIG. 16G). […] The blocking of essential synaptic receptors (NMDA and AMPA) by Aβ aggregation species leading to synaptic dysfunction followed by impairment in hippocampal LTP formation. […] TGR63 treatment ameliorates the memory impairment in APP/PS 1 mice by reducing the toxic amyloid burden from the brain under progressive AD conditions.

In data set [4] the test system is APP/PS1 and WT mice. Put plainly: Novel object identification (NOI) test. Type of data set: in vivo. The protocol: as §2

`CN(C)c1ccc(C#Cc2ccc3c4c(cccc24)C(=O)N(CC[N+](C)(C)C)C3=O)cc1` [TGR63, 2-(6-((4-(dimethylamino)phenyl)ethynyl)-1,3-dioxo-1H-benzo[de]isoquinolin-2(3H)-yl)-N,N,N-trimethylethan-1-aminium]: the “exploration in target quadrant relative to AD vehicle cohort” value with APP/PS1 and WT mice [1] (AD TGR63 cohort, probe trial) is given as less than 20%. Further, the “spatial memory formation (latency to hidden platform during training)” value in the data set with APP/PS1 and WT mice [1] (AD TGR63 cohort, training days) was “significant improvement in spatial memory formation compared to AD vehicle cohort”. Also, the “platform region crossings, probe trial” value with APP/PS1 and WT mice [1] (AD TGR63 cohort, AD vehicle ~1 time, WT vehicle ~4 times) is recorded as ~ 4 times. In addition, the “exploration in target quadrant, probe trial” value is ~ 34 % of total time in the data set with APP/PS1 and WT mice [1] (AD TGR63 cohort, AD vehicle ~13%); < 35 % of total time with APP/PS1 and WT mice [1] (WT TGR63 cohort, WT vehicle ~33%). Also, the “time in without platform quadrants, probe trial” value with APP/PS1 and WT mice [1] (AD TGR63 cohort, AD vehicle ~87%) is ~66 % of total time; in the data set on APP/PS1 and WT mice [1] (WT TGR63 cohort, WT vehicle ~67%), ~58 % of total time. The logP in data set [2] (calculated from octanol and water layer concentrations) was 0.1. Besides, in data set [2] (octanol/water partition), the “concentration in octanol layer” value is given as 21.82 µM. In addition, the “concentration in water layer” value in data set [2] (octanol/water partition) came out at 18.18 µM. Further, the “BBB crossing ability (MALDI of brain lysate)” value in data set [3] was “confirmed BBB crossing ability of TGR63”. In addition, the LD50 with WT mice was ~ 157.9 mg/kg body weight. In the data set with APP/PS1 mice (5 min, AD vehicle 2698.25 cm, WT vehicle 1533.88 cm), the “total distance traveled (average)” value came out at 1515.33 cm. Moreover, the “distance traveled in the center zone (average)” value with APP/PS1 mice (AD vehicle 243.0 cm) came to 98.14 cm. For the same compound, in the data set on APP/PS1 mice (AD vehicle ~20), the “number of entries into the center zone” value was ~ 9 entries. In addition, the “discrimination index (DI)” value is “+43” in the data set with APP/PS1 and WT mice [4] (AD TGR63 cohort, after 24 h, AD vehicle -3); “+38” in the data set on APP/PS1 and WT mice [4] (AD TGR63 cohort, after 48 h, AD vehicle -7); “+50” in the data set with APP/PS1 and WT mice [4] (WT TGR63 cohort, after 24 h, WT vehicle +49); “+45” with APP/PS1 and WT mice [4] (WT TGR63 cohort, after 48 h, WT vehicle +43). In addition, in the data set on APP/PS1 and WT mice [4] (TGR63 treated WT and AD cohorts), the “reduction of DI at 48 h compared to 24 h” value is on record as ~ 5 units of DI.

What is called logP is the decadic logarithm of the partition coefficient of the neutral form, usually between octanol and water.
